Results on three molecules are retold here after patent publication US20040058056A1, “Drug diffusion coatings, applications and methods” (priority 2003, published 2004).

Type in all cases: physicochemical
Series [1] in a line: Elution of daunomycin from PHEMA-coated stainless steel coupons with TMCTS plasma membrane. To be noted: buffered saline pH 7.4; absorbance at 480 nm; different TMCTS plasma deposition times. The procedure:
Before drug application and plasma coating to 0.71 cm×0.71 cm 316 stainless steel coupon surfaces, all the coupons were cleaned with Acationox detergent, rinsed exhaustively with water, and air-dried. The coupons were then dip-coated in 80% ethanol containing 5% PHEMA and 5 mg/ml of daunomycin. After dipping, the coupons were wicked to remove excess solution, and air-dried under a gentle flow of warm air. Thereafter, the coated coupons were stored in the dark. The drug-coated coupons were then plasma-deposited with TMCTS for varying amounts of time. The plasma was generated at 83 W and 55 mTorr with a mass flow rate of 84 sccm of TMCTS monomer vapor. The coating thickness could be precisely controlled by plasma deposition time, with a coating thickness in the range of 5 to 200 nm.
The coupons were eluted in buffered saline at pH 7.4. The eluted drug was measured spectrophotometrically at 480 nm for daunomycin. The absorbance change was proportional to the concentration of daunomycin.

A short description of series [2]: Elution of rapamycin from TMCTS plasma-coated stainless steel coupons in porcine serum. On the procedure:
The elution time of rapamycin from the surface of stainless steel coupons was evaluated as a function of plasma deposition time. One side of stainless steel coupons was coated with 100±10 μg of rapamycin dissolved in chloroform (0.2%, w/v). After air drying at room temperature, the coated surfaces were plasma coated with TMCTS. The plasma was generated at 83 W and 55 mTorr with a mass flow rate of 84 sccm at various time lengths between 30 and 300 seconds. The coated coupons were extracted with porcine serum mixed with 0.02% NaN3 as the preservative at 37° C. The remaining amounts of the drug on the coupon was extracted with 2 ml of methanol for 2 hours at room temperature and assayed by HPLC at 277 nm, utilizing an HPLC system calibrated with known amounts of rapamycin.

The nature of series [3]: Elution of NPC-15199 from PHEMA-coated stainless steel coupons with TMCTS plasma membrane. The following applies: buffered saline pH 7.4, room temperature. On the procedure:
N-(9-fluorenylmethoxycarbonyl)-L-leucine (NPC-15199), an anti-inflammatory drug, was coated on a stainless steel coupon by dip-coating the coupon in a mixture of 20 mM NPC-15199 in a 60:40 solution of acetone:water containing 7.5% poly(2-hydroxyethyl methacrylate) (“PHEMA”). The coupon was then air dried for about 5 minutes at approximately 60° C. TMCTS plasma was deposited on different NPC-15199 coated coupons for 20, 40, 60 and 80 seconds, respectively. […] at pH 7.4 at room temperature. Elution of NPC-15199 was measured by change in absorbance using a spectrophotometer.
The plasma was generated at 83 W and 55 mTorr with a mass flow rate of 84 sccm; under these conditions a micro-thin siloxane membrane is deposited on the targeted surface, with the thickness directly related to the length of time of plasma deposition.

SMILES strings stand for the structures.

For `COc1cccc2c1C(=O)c1c(O)c3c(c(O)c1C2=O)C[C@@](O)(C(C)=O)C[C@@H]3O[C@H]1C[C@H](N)[C@H](O)[C@H](C)O1` [daunomycin], in series [1], the drug diffusion time result is reported as “controlled by the TMCTS coating thickness”.
On to `CO[C@H]1C[C@@H]2CC[C@@H](C)[C@@](O)(O2)C(=O)C(=O)N2CCCC[C@H]2C(=O)O[C@H]([C@H](C)C[C@@H]2CC[C@@H](O)[C@H](OC)C2)CC(=O)[C@H](C)/C=C(\C)[C@@H](O)[C@@H](OC)C(=O)[C@H](C)C[C@H](C)/C=C/C=C/C=C/1C` [rapamycin], for which the “% Remaining” value worked out at 100% in series [2] (0 (uncoated) TMCTS deposition, elution time 0 hours); 0% in series [2] (0 (uncoated) TMCTS deposition, elution time 17 hours, porcine serum 37° C.); 2.6% in series [2] (TMCTS deposition 30 seconds, elution time 64 hours, porcine serum 37° C.); 33.2% in series [2] (TMCTS deposition 60 seconds, elution time 64 hours, porcine serum 37° C.); 67.7% in series [2] (TMCTS deposition 120 seconds, elution time 47.5 hours, porcine serum 37° C.); 76.3% in series [2] (TMCTS deposition 180 seconds, elution time 24 hours, porcine serum 37° C.). The “% Remaining” value in series [2] (TMCTS deposition 240 seconds, elution time 24 hours, porcine serum 37° C.) turned out to be 93.6%; in series [2] (TMCTS deposition 300 seconds, elution time 47.5 hours, porcine serum 37° C.) it was 91.9%. For the same molecule, the “Estimated Half-Life” value in series [2] (TMCTS deposition 30 seconds, porcine serum 37° C.) was 12 h; in series [2] (TMCTS deposition 60 seconds, porcine serum 37° C.), 41 h; in series [2] (TMCTS deposition 120 seconds, porcine serum 37° C.), 84 h; in series [2] (TMCTS deposition 180 seconds, porcine serum 37° C.) it was 94 h; in series [2] (TMCTS deposition 240 seconds, porcine serum 37° C.) it was 211 h; in series [2] (TMCTS deposition 300 seconds, porcine serum 37° C.), 360 h.
Consider `CC(C)C[C@H](NC(=O)OCC1c2ccccc2-c2ccccc21)C(=O)O` [NPC-15199, N-(9-fluorenylmethoxycarbonyl)-L-leucine], for which the “T1/2 (half-elution time)” value in series [3] (TMCTS plasma deposition time 20 seconds) is 0.833 min; in series [3] (TMCTS plasma deposition time 40 seconds), 1.67 min; in series [3] (TMCTS plasma deposition time 60 seconds), 2.5 min; in series [3] (TMCTS plasma deposition time 80 seconds), 4 min.
